The source of these data is US20110160444A1, “Cloning Transcription Factor Gene OsWOX20 That Regulates The Growth and Development of Monocotyledon's Root and Uses Thereof” (Huazhong Agricultural University, priority 2007, published 2011).

In one assay the test system is OsWOX20 gene expression. The assay is described as follows: Induced expression of rice endogenous gene OsWOX20 by realtime-PCR. To be noted: 10 μM, roots of seedlings soaked; for Induction of expression of OsWOX20 gene: samples 0-24 h, normalized to actin1; for Time after which level of expression of OsWOX20 began to rise / Time at which level of expression of OsWOX20 reached peak: exogenous auxin. The format is in vivo, rice variety Zhonghua No. 11. The protocol:
The rice variety “Zhonghua No. 11” was used as the research material and treated with auxin, cytokinin, an auxin inhibitor and light at day ten after germination. Auxin treatment was done by soaking the roots of the seedlings with 10 μM IAA (indoleacetic acid) and 10 μM NAA (naphthaleneacetic acid) and taking samples at 0 h, 0.5 h, 1 h, 2 h, 3 h, 4 h, 6 h, 9 h, 12 h and 24 h. Cytokinin treatment was done by soaking the roots of the seedlings with 10 μM 6-BA (6-benzylaminopurine) and taking samples at 0 h, 0.5 h, 1 h, 2 h, 3 h, 4 h, 6 h, 9 h, 12 h and 24 h. Auxin inhibitor NPA (N-1-naphthylphthalamic acid) treatment was performed by soaking the roots of the seedlings in 1 μM NPA solution and taking samples at 0 h, 0.5 h, 1 h, 2 h, 3 h, 4 h, 6 h, 9 h, 12 h and 24 h. Light treatment was carried out by allowing the seeds of rice variety “Zhonghua No. 11” to germinate in dark, then placing the seedlings which have germinated for 5 days in dark under light for growth, and sampling at 1 h, 2 h, 4 h, 8 h and 12 h after light illumination. Total RNAs were extracted from whole plants (Trizol reagent, purchased from Invitrogen) and reverse transcribed according to the method described in Example 4. The reverse transcription product was subjected to quantitative PCR in a reaction system of 25 μl containing 1.5 μl of reverse transcription product, 0.25 μM of each of left and right primers and 12.5 μl of SYBR Green mixture (Applied Biosystems). The PCR reaction was performed on a 7500 real-time quantitative PCR amplifier (Applied Biosystems) according to the protocol described in the manufacturer's manual provided by Applied Biosystems, with rice actin1 gene as the internal reference of the reaction. All primers were annealed at 58° C. and reaction was performed for 40 cycles. Each sample was assayed in triplicate and normalized to the level of expression of actin1. […] The OsWOX20 primers used in the quantitative PCR were: […]

A further assay relates to wild-type plants. The assay is described as follows: Effect of auxin inhibitor (NPA) on root length and numbers of crown and lateral roots, wild-type plants. Type of assay: in vivo, rice. To be noted: treated with 10^-6 mol/L NPA. An excerpt: (§1) 2) In order to compare the root system of transgenic OWOX20 lines with increased number of roots to that of wild-type lines, we collected seeds from five transgenic OWOX20 lines after the seeds were completely ripe and allowed the seeds to germinate to investigate growth of the roots.

The subject of assay [1] is transgenic plants (OsWOX20 overexpression lines 1-3). As to the kind of experiment: Effect of auxin inhibitor (NPA) on root length and numbers of crown and lateral roots, OsWOX20 transgenic plants. Type of assay: in vivo, rice. Conditions: for Length of roots / Number of crown roots / Number of lateral roots: treated with 10^-6 mol/L NPA.
Text: as §1

As to `O=C(O)Cc1c[nH]c2ccccc12` [IAA, indoleacetic acid], in the assay with OsWOX20 gene expression, the “Induction of expression of OsWOX20 gene” value is listed as “can be induced”, the “Time after which level of expression of OsWOX20 began to rise” value worked out at 30 min and the “Time at which level of expression of OsWOX20 reached peak” value is on record as “about 1 hour”.
Consider `c1ccc(CNc2ncnc3nc[nH]c23)cc1` [6-BA, 6-benzylaminopurine], for which the “Induction of expression of OsWOX20 gene” value with OsWOX20 gene expression is listed as “can be induced”.
With `O=C(O)c1ccccc1C(=O)Nc1cccc2ccccc12` [NPA, N-1-naphthylphthalamic acid], the Length of roots was determined as 4.8 ± 0.5 cm with wild-type plants, 1.1 ± 0.3 cm in assay [1] (transgenic Line 1+), 1.3 ± 0.6 cm in assay [1] (transgenic Line 2+) and 1.0 ± 0.6 cm in assay [1] (transgenic Line 3+). Further, the “Number of crown roots” value was 3 ± 0 with wild-type plants, 3.0 ± 2.7 in assay [1] (transgenic Line 1+), 1.7 ± 0.6 in assay [1] (transgenic Line 2+) and 3.0 ± 1.0 in assay [1] (transgenic Line 3+). For the same molecule, the “Number of lateral roots” value with wild-type plants came out at 6.4 ± 2.8; in assay [1] (transgenic Line 1+), 0; in assay [1] (transgenic Line 2+), 0; in assay [1] (transgenic Line 3+), 0. Moreover, in assay [1] (seeds from lines having increased number of roots, 10^-6 mol/L NPA), the “Growth of the roots” value is given as “markedly inhibited”. For the same molecule, the “Numbers and length of crown roots and lateral roots versus untreated plant lines” value in assay [1] (transgenic plant lines in the presence of NPA) is listed as “significantly decreased”.
`O=C(O)Cc1cccc2ccccc12` [NAA, naphthaleneacetic acid]: in the assay with OsWOX20 gene expression, the “Time after which level of expression of OsWOX20 began to rise” value turned out to be 30 min and the “Time at which level of expression of OsWOX20 reached peak” value was “about 1 hour”.
